Data as given in patent US20100280975A1, “SYSTEMS FOR CLINICAL TRIALS” (WisTa Laboratories Ltd., priority 2007, published 2010).
Values joined by “and” are separate entries in the source; they are usually repeats but may differ in a detail not shown here. Identical values can stand only once.

System: mild and moderate dementia of the Alzheimer type
Assay: rember™ Phase 2 study: ADAS-cog change over 24 weeks
Details: for Estimate, change in ADAS-cog score vs intercept, mixed effects / Estimate, change in ADAS-cog score vs intercept, least squares / Estimate, change in ADAS-cog score vs intercept, linear least squares / Estimate, change in ADAS-cog score vs intercept, linear mixed effects: with interaction term; for Estimate, ADAS-cog change vs placebo, LM (ANCOVA) analysis / Estimate, change in ADAS-cog score vs intercept (placebo), linear least squares / Estimate, change in ADAS-cog score vs intercept (placebo), linear mixed effects: without interaction term; for Estimate, ADAS-cog change vs placebo, LM (ANCOVA) analysis: 24-week assessment data only
[1] = ITT/LOCF, week 24, CDR-mild, 60 mg tid
[2] = ITT/LOCF, week 24, CDR-mild, low (100 mg) tid
[3] = ITT/LOCF, week 24, CDR-moderate, 30 mg tid
[4] = ITT/LOCF, week 24, CDR-moderate, 60 mg tid
[5] = ITT/LOCF, week 24, CDR-moderate, low (100 mg) tid
[6] = ITT/LOCF, week 24, low (100 mg) tid
[7] = ITT/OC, CDR-moderates, mixed-effects model, low (100 mg) tid
[8] = ITT/OC, week 24, CDR-mild, 30 mg tid
[9] = ITT/OC, week 24, CDR-mild, 60 mg tid
[10] = ITT/OC, week 24, CDR-mild, low (100 mg) tid
[11] = ITT/OC, week 24, CDR-moderate, 30 mg tid
[12] = ITT/OC, week 24, CDR-moderate, 60 mg tid
[13] = ITT/OC, week 24, CDR-moderate, low (100 mg) tid
[14] = ITT/OC, week 24, low (100 mg) tid

CN(C)c1ccc2nc3ccc(=[N+](C)C)cc-3sc2c1 [rember™, methylthioninium chloride]
Estimate, change in ADAS-cog score vs intercept, mixed effects (ITT/LOCF, week 24, CDR-mild, 30 mg tid): 0.46 ADAS-cog units | Estimate, change in ADAS-cog score vs intercept, least squares [1]: −0.73 ADAS-cog units | Estimate, change in ADAS-cog score vs intercept, mixed effects [1]: −0.73 ADAS-cog units | Estimate, change in ADAS-cog score vs intercept, least squares [2]: −0.18 ADAS-cog units | Estimate, change in ADAS-cog score vs intercept, mixed effects [2]: −0.18 ADAS-cog units | Estimate, change in ADAS-cog score vs intercept, least squares [3]: −1.05 ADAS-cog units | Estimate, change in ADAS-cog score vs intercept, mixed effects [3]: −1.05 ADAS-cog units | Estimate, change in ADAS-cog score vs intercept, least squares [4]: −3.70 ADAS-cog units | Estimate, change in ADAS-cog score vs intercept, mixed effects [4]: −3.70 ADAS-cog units | Estimate, change in ADAS-cog score vs intercept, least squares [5]: 1.06 ADAS-cog units | Estimate, change in ADAS-cog score vs intercept, mixed effects [5]: 1.06 ADAS-cog units | Estimate, ADAS-cog change vs placebo, LM (ANCOVA) analysis (ITT/LOCF, 30 mg tid): −0.04 ADAS-cog units | Estimate, ADAS-cog change vs placebo, LM (ANCOVA) analysis (ITT/LOCF, low (100 mg) tid): −0.78 ADAS-cog units | Estimate, change in ADAS-cog score vs intercept (placebo), linear least squares (ITT/LOCF, week 24, 30 mg tid): 0.04 ADAS-cog units | Estimate, change in ADAS-cog score vs intercept (placebo), linear mixed effects (ITT/LOCF, week 24, 30 mg tid): 0.04 ADAS-cog units | Estimate, change in ADAS-cog score vs intercept (placebo), linear least squares (ITT/LOCF, week 24, 60 mg tid): −1.18 ADAS-cog units | Estimate, change in ADAS-cog score vs intercept (placebo), linear mixed effects (ITT/LOCF, week 24, 60 mg tid): −1.18 ADAS-cog units | Estimate, change in ADAS-cog score vs intercept (placebo), linear least squares [6]: −0.03 ADAS-cog units | Estimate, change in ADAS-cog score vs intercept (placebo), linear mixed effects [6]: −0.03 ADAS-cog units | ADAS-cog change from baseline at 24 weeks (ITT/OC, CDR-moderates, mixed-effects model, 30 mg tid): 1.03 ADAS-cog units | ADAS-cog change from baseline at 24 weeks (ITT/OC, CDR-moderates, mixed-effects model, 60 mg tid): −0.36 ADAS-cog units | ADAS-cog change from baseline at 24 weeks [7]: 4.6 ADAS-cog units and 4.63 ADAS-cog units | ADAS-cog effect size at 24 weeks (vs placebo) [7]: −0.42 ADAS-cog units | Estimate, change in ADAS-cog score vs intercept, linear least squares [8]: 0.43 ADAS-cog units | Estimate, change in ADAS-cog score vs intercept, linear mixed effects [8]: 0.33 ADAS-cog units | Estimate, change in ADAS-cog score vs intercept, linear least squares [9]: −0.66 ADAS-cog units | Estimate, change in ADAS-cog score vs intercept, linear mixed effects [9]: −0.77 ADAS-cog units | Estimate, change in ADAS-cog score vs intercept, linear least squares [10]: −0.05 ADAS-cog units | Estimate, change in ADAS-cog score vs intercept, linear mixed effects [10]: −0.21 ADAS-cog units | Estimate, change in ADAS-cog score vs intercept, linear least squares [11]: 1.11 ADAS-cog units | Estimate, change in ADAS-cog score vs intercept, linear mixed effects [11]: −1.09 ADAS-cog units | Estimate, change in ADAS-cog score vs intercept, linear least squares [12]: −2.74 ADAS-cog units | Estimate, change in ADAS-cog score vs intercept, linear mixed effects [12]: −3.23 ADAS-cog units | Estimate, change in ADAS-cog score vs intercept, linear least squares [13]: 0.99 ADAS-cog units | Estimate, change in ADAS-cog score vs intercept, linear mixed effects [13]: 1.13 ADAS-cog units | Estimate, change in ADAS-cog score vs intercept (placebo), linear least squares (ITT/OC, week 24, 30 mg tid): 0.00 ADAS-cog units | Estimate, change in ADAS-cog score vs intercept (placebo), linear mixed effects (ITT/OC, week 24, 30 mg tid): −0.07 ADAS-cog units | Estimate, change in ADAS-cog score vs intercept (placebo), linear least squares (ITT/OC, week 24, 60 mg tid): −0.95 ADAS-cog units | Estimate, change in ADAS-cog score vs intercept (placebo), linear mixed effects (ITT/OC, week 24, 60 mg tid): −1.13 ADAS-cog units | Estimate, change in ADAS-cog score vs intercept (placebo), linear least squares [14]: 0.08 ADAS-cog units | Estimate, change in ADAS-cog score vs intercept (placebo), linear mixed effects [14]: −0.04 ADAS-cog units | mean effect sizes in moderate subjects over 24 weeks (severity as interaction term, CDR-moderate, 60 mg dose): −2.7 to −3.7 ADAS-cog units
